According to PMC12040169 (PLOS Biology, 2025):

Assay: in vitro
Conditions: human, hela cells, % viability

| SMILES | viability at 28.5 h, 10 µM [%] |
| --- | --- |
| CCCc1[nH]ncc1C(=O)N1CCN(c2ccnc(N(C)C)n2)CC1 [CBK305406] | 96.4 |
| CCOC(=O)c1csc(C2CCCN2C(=O)CC2C=CCCC2)n1 (stereo not drawn) [CBK305407] | 97.8 |
| Cn1cc(CCNC(=O)Nc2ccc(CN3CCCC3=O)cc2)cn1 [CBK305410] | 107 |
| CN(C(=O)CN1CCCCC1Cn1cccn1)C1(C#N)CCCCC1 (stereo not drawn) [CBK305412] | 90.1 |
| CCOC(=O)N1CCN(Cc2ccc(OCc3nccn3C)cc2)CC1 [CBK305413] | 94 |
| Cc1nc(CN2C(=O)CC(Cc3cnn(C)c3)C2=O)nc2ccccc12 (stereo not drawn) [CBK305415] | 105 |
| COCCc1nsc(N2CCC(Oc3cccnc3N(C)C)C2)n1 (stereo not drawn) [CBK305418] | 98.8 |
| CCn1cc(C2CN(S(=O)(=O)c3sc(C)nc3C)CCO2)cn1 (stereo not drawn) [CBK305420] | 96.8 |
| Cn1cc(C(=O)N2CCOCC2c2nc(-c3cccs3)no2)cn1 (stereo not drawn) [CBK305422] | 113 |
| CCCCNc1cc(N2CCOC(c3cnn(CC)c3)C2)nc(N)n1 (stereo not drawn) [CBK305423] | 93.8 |
| Cc1cccc(OCC(=O)NCC(c2cccs2)N2CCOCC2)c1 (stereo not drawn) [CBK305426] | 90.1 |
| CC(C)NC(=O)CN1CCC(N(C)Cc2cccc(C(F)(F)F)c2)CC1 [CBK305429] | 95 |
| C#CCNS(=O)(=O)c1cccc(C(=O)NC2CCOc3ccccc32)c1 (stereo not drawn) [CBK305430] | 111 |
| Cc1ccc(Cl)c(OC(C)C(=O)N(CCCO)Cc2ccncc2)c1 (stereo not drawn) [CBK305432] | 109 |
| CC1c2ccsc2CCN1C(=O)COc1cccc(Br)c1 (stereo not drawn) [CBK305434] | 91.9 |
| CC(Oc1cccc(C#N)c1)C(=O)N1CCCC1C(=O)NCC(F)(F)F (stereo not drawn) [CBK305435] | 93.8 |
| CC(C)c1nc(CC(=O)NCCC(=O)N2CCCc3ccccc32)cs1 [CBK305437] | 98.1 |
| Cc1nc(CCNC(=O)c2nn(-c3cccc(C(C)C)c3)cc2O)cs1 [CBK305438] | 109 |
| CC(C)OC(=O)Cc1nc(CN2CCOC(c3ccc(F)cc3)C2)cs1 (stereo not drawn) [CBK305439] | 119 |
| Cn1cc(-c2nc(C3COCCN3Cc3c(F)cccc3Cl)no2)cn1 (stereo not drawn) [CBK305441] | 79.4 |
| Cn1cc(-c2nc(C3COCCN3C(=O)c3cccc(Cl)c3)no2)cn1 (stereo not drawn) [CBK305443] | 80.1 |
| CS(=O)(=O)Nc1c[nH]nc1C1CCCN(c2cccc(F)c2C#N)C1 (stereo not drawn) [CBK305444] | 95.2 |
| O=C(NCCCn1cccn1)N1CCCN(Cc2ccc(Cl)cc2)CC1 [CBK305447] | 116 |

| SMILES | viability at 28.5 h, 10 µM [%] |
| --- | --- |
| CCOC(=O)c1csc(C2CCCN2C(=O)CCc2ccccc2O)n1 (stereo not drawn) [CBK305448] | 109 |
| COCCn1ccc(NC(=O)N2CCCC(c3cc(F)ccc3F)C2)n1 (stereo not drawn) [CBK305451] | 79.6 |
| COC(C)c1nc(C)c(C(=O)NC2CCCN(c3ccn(C)n3)C2=O)s1 (stereo not drawn) [CBK305454] | 100 |
| CC(C)(C)OC(=O)N1CCCC(C(=O)NC(CO)Cc2ccccn2)C1 (stereo not drawn) [CBK305458] | 88.4 |
| Cc1c(C(=O)N2CCNC(=O)C2(C)C)nnn1Cc1ccc(F)cc1F [CBK305461] | 80.2 |
| CN(c1cccc(C#N)c1)C1CCN(c2nc3c(cnn3C)c(=O)[nH]2)C1 (stereo not drawn) [CBK305462] | 91.8 |
| Cc1ncsc1C(=O)N1CCNCC1c1cccc(F)c1 (stereo not drawn) [CBK305463] | 93.1 |
| Cc1cc(C(C)NC(=O)C2CCCN(S(C)(=O)=O)C2)c(C)s1 (stereo not drawn) [CBK305464] | 98.4 |
| CN(CCC1CCN(c2ccncc2)CC1)C(=O)c1cc2sccc2[nH]1 [CBK305468] | 93.3 |
| Cc1ccc(C)c(CC(=O)N(CCC(=O)O)C2CCOCC2)c1 [CBK305469] | 92.3 |
| CC(C)NC(=O)CN1CCN(c2ccc(C#N)cc2Cl)CC1 [CBK305470] | 88.3 |
| Cn1cc(N2CCN(C(=O)CCOc3ccccc3)CC2)cn1 [CBK305473] | 102 |
| O=C(CN1CCC(C(O)C(=O)NC2CC2)CC1)Nc1cc(Cl)ccc1F (stereo not drawn) [CBK305477] | 93.4 |
| N#Cc1ccc(S(=O)(=O)N2CCC(OCc3ccncc3)C2)cn1 (stereo not drawn) [CBK305478] | 91 |
| COc1ccc2[nH]cc(C3CCN(C(=O)c4cc(C#N)c[nH]4)CC3)c2c1 [CBK305479] | 93.2 |
| Cn1cc(C(=O)CCC(=O)NC2CCCN(c3ncccn3)C2)cn1 (stereo not drawn) [CBK305480] | 94.1 |
| O=C(c1ncc(F)cc1F)N1CCCCC1CN1CCOCC1 (stereo not drawn) [CBK305482] | 102 |
| Cc1ncc(S(=O)(=O)N2CCC(OCc3ccncc3)C2)s1 (stereo not drawn) [CBK305483] | 99.5 |
| COC(=O)c1cc(C(=O)Nc2ccc(OCCC(N)=O)cc2)c[nH]1 [CBK305486] | 103 |
| COCC1CCN(C(=O)Nc2ccc(F)c(N3CCCNC3=O)c2)C1 (stereo not drawn) [CBK305487] | 100 |
| CN(C(=O)CCn1c(=O)oc2cc(Cl)ccc21)C1(C(N)=O)CCCC1 [CBK305493] | 89.1 |
| Cc1csc(S(=O)(=O)Cc2nnc(C)n2C2CC2)n1 [CBK305494] | 98.4 |
| Cn1cncc1CN1CCNC(=O)C1c1ccccc1C(F)(F)F (stereo not drawn) [CBK305495] | 98 |

| SMILES | viability at 28.5 h, 10 µM [%] |
| --- | --- |
| Brc1ccc(C2(c3nnc(C4CC4)o3)CCOCC2)cc1 [CBK305498] | 98.2 |
| CC(C)(C)OC(=O)C1(NC(=O)Cc2cn3ccccc3n2)CCCC1 [CBK305500] | 95.9 |
| Cc1nn(C)c(C)c1C1CCCN1CC(=O)NCc1ccccn1 (stereo not drawn) [CBK305501] | 94.9 |
| Cc1cc(NC(=O)CN2CCN(Cc3ccc(Cl)nc3)CC2)no1 [CBK305504] | 104 |
| Cc1c(C(=O)N2CCN(C3CC3)CC2)nnn1Cc1ccc(F)cc1F [CBK305507] | 97.1 |
| Cc1cccn2c(=O)cc(CN3CCc4nn(C)c(=O)cc4C3)nc12 [CBK305514] | 98.2 |
| CCNC(=O)CN1CCN(c2nc(C(F)(F)F)ccc2C#N)CC1 [CBK305515] | 86.4 |
| CCCC(=O)Nc1ccc(OCc2ncc(C(C)C)o2)c(C(C)=O)c1 [CBK305516] | 100 |
| CC(=O)c1cccc(NC(=O)N(CCO)C2CCc3ccccc32)c1 (stereo not drawn) [CBK305517] | 93.4 |
| Cc1cccn2c(=O)cc(CN3CCC(n4ccnc4)CC3)nc12 [CBK305519] | 92.3 |
| CNC(=O)c1ccc(NC(=O)N2CCCCC2c2ccnn2C)cc1 (stereo not drawn) [CBK305521] | 112 |
| Cc1nnsc1C(=O)Nc1ncn(CC(=O)N2CCCCCC2)n1 [CBK305522] | 96.9 |
| COc1ccc(Cl)cc1C1(CNC(=O)C2CCC(N)C2)CCOCC1 (stereo not drawn) [CBK305523] | 85.9 |
| O=C(O)c1ccc(C(=O)NC2CCN(CC(F)(F)F)C2=O)s1 (stereo not drawn) [CBK305524] | 95.4 |
| CC(=O)Nc1cccc(CN2CCCC(CO)C2)c1 (stereo not drawn) [CBK305527] | 91.9 |
| Cc1nnnn1-c1cc(NC(=O)NCC2CCCO2)ccc1F (stereo not drawn) [CBK305528] | 105 |
| Cc1c(C(=O)N2CCS(=O)(=O)CC2)nnn1-c1ccc2ncccc2c1 [CBK305529] | 112 |
| CN(C(=O)C1(C)CCOCC1)c1nc2c(s1)CC(c1ccccc1)CC2 (stereo not drawn) [CBK305531] | 82.8 |
| O=C1NC(=O)C2(CCN(C(=O)c3csc4c3CCCC4)C2)N1 (stereo not drawn) [CBK305533] | 89.8 |
| CC(C)Cc1nc(C(=O)N2CCC3(C2)NC(=O)NC3=O)cs1 (stereo not drawn) [CBK305534] | 91.8 |
| CC(C)N(C)CC(=O)N(C)c1nc2c(s1)CC(c1ccccc1)CC2 (stereo not drawn) [CBK305535] | 93.7 |
| Cn1cc(CNS(=O)(=O)c2ccc(Br)c(F)c2)cn1 [CBK305539] | 87.7 |
| CC1CCC(N(Cc2nnc(C3CCC3)n2C)CC2CCCO2)CC1 (stereo not drawn) [CBK305540] | 97.3 |

| SMILES | viability at 28.5 h, 10 µM [%] |
| --- | --- |
| O=C(c1ccc2cc[nH]c2c1)N1CCN(CC2CCOC2)CC1 (stereo not drawn) [CBK305541] | 99.2 |
| CC(C)n1nnnc1-c1ccccc1NS(=O)(=O)c1cn[nH]c1 [CBK305542] | 88.6 |
| O=C(NC1CC(=O)N(CC(F)(F)F)C1)c1cnc(-c2ccncc2)s1 (stereo not drawn) [CBK305546] | 78 |
| CCOc1cc(NC2CCN(C(=O)C3CCCC(C)(C)C3)CC2)ncn1 (stereo not drawn) [CBK305547] | 80.9 |
| Cc1nnc(CN(CC2CCCO2)C2CCC(C)CC2)n1C (stereo not drawn) [CBK305548] | 95.2 |
| O=C(c1c[nH]nc1-c1cc2ccccc2o1)N1CCC(O)(C(F)(F)F)C1 (stereo not drawn) [CBK305549] | 90.7 |
| CCC(=O)N1CCC(NC(=O)c2cnc(-c3ccncc3)s2)C1 (stereo not drawn) [CBK305550] | 94.6 |
| COc1ccc(-n2nnc(C(=O)N3CCCCC3C(N)=O)c2C)cc1 (stereo not drawn) [CBK305551] | 98.1 |
| Cc1ccc2c(c1)nc(CNC(=O)NCCc1nc(C)no1)n2C [CBK305552] | 98.8 |
| Cc1ccc2c(c1)nc(CNC(=O)NC1CCCc3cn[nH]c31)n2C (stereo not drawn) [CBK305554] | 77.5 |
| CC1(O)CCCN(C(=O)c2c[nH]nc2-c2cc3ccccc3o2)C1 (stereo not drawn) [CBK305555] | 88.3 |
| CCS(=O)(=O)N1CCc2cc(-c3csc(-c4cnn(C)c4)n3)ccc21 [CBK305560] | 93.7 |
| Cc1ccc(Cl)cc1NC(=O)C1CC(=O)N(Cc2ccccn2)C1 (stereo not drawn) [CBK305561] | 101 |
| Cc1cc(NC(=O)CN(C)C(=O)Cc2cccc(C(F)(F)F)c2)no1 [CBK305564] | 80.5 |
| O=C1NC2(CCCC2)C(=O)N1Cc1cnn(-c2ccccc2)n1 [CBK305568] | 103 |
| Cc1oc(NC(=O)CN2CCN(c3ncccn3)CC2)c(C#N)c1C [CBK305569] | 94.6 |
| O=C1NC2(CCCCC2)C(=O)N1Cc1cnn(-c2ccccc2)n1 [CBK305570] | 97.8 |
| Cn1ccc(C(=O)NCc2cccnc2OCC(F)(F)F)cc1=O [CBK305574] | 99.9 |
| Cc1cc(NC(=O)CN(C)C(=O)c2ccc(-n3cc(Br)cn3)cc2)no1 [CBK305575] | 100 |
| CN(C1CCCCC1)S(=O)(=O)NCCc1cn2ccccc2n1 [CBK305576] | 102 |
| CCn1c(=O)n(CCC(N)=O)c2cc(S(=O)(=O)N(C)C)ccc21 [CBK305577] | 99.6 |
